Patent US11116767B2, “3,5-disubstituted pyrazoles useful as checkpoint kinase 1 (Chk1) inhibitors, and their preparations and applications” (PHARMAENGINE, INC., priority 2016, dated 2021)

Columns and labels:
Chk1 = target: T1, Chk1 (Homo sapiens, UniProt O14757); experiment: biochemical; conditions: ADP-Glo; read-out: Chk1 in vitro enzyme activity (grade)
T1 construct: purchased BPS 40039
T1 sequence (O14757 1-476): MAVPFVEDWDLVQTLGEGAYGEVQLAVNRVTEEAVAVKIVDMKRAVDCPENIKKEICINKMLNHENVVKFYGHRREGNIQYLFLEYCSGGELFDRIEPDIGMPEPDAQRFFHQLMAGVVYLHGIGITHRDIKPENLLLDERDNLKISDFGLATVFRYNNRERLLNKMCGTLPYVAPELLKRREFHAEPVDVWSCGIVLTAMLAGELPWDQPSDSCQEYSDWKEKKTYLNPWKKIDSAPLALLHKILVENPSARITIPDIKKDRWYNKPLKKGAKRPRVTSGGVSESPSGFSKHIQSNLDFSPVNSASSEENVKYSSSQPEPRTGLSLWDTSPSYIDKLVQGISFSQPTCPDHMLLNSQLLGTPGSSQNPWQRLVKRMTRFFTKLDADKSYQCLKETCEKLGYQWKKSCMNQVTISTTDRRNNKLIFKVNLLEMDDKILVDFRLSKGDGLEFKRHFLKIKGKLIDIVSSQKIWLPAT

HT-29 = experiment: Cancer cell growth inhibition assay (CellTiter-Glo), HT-29; format: cell-based, Human; conditions: Homo sapiens, HT-29; 72 hours, cellular ATP content; read-out: HT-29 anti cell proliferation activity (grade)
Procedure: (§1) Human cancer cell lines were purchased from American Type Culture Collection (Manassas, Va.). The trypsinized cells were diluted to required volume at densities of 44,000 cells/ml. 90 ul cell slurry was dispensed per well in 96-well flat-bottomed plates with the recommended culture medium. The cells were incubated for 24 hours at 37° C. in 5% CO2 under humidified condition. The cells were then incubated with compounds at various concentrations for 72 hours in culture medium supplemented with 0.5% (v/v) FBS. Growth inhibition was assessed by assay of cellular ATP content using CellTiter-Glo reagent to each well. Luminesce was read on Envision. The inhibition rate (%)=(Max signal compound signal)/(Max signal Min signal)×100.

MDA-MB-231 = experiment: Cancer cell growth inhibition assay (CellTiter-Glo), MDA-MB-231; format: cell-based, Human; conditions: Homo sapiens, MDA-MB-231; 72 hours, cellular ATP content; read-out: MDA-MB-231 anti cell proliferation activity (grade)
Procedure: as §1

Row | IC50 (Chk1) [nM] | IC50 (HT-29) [nM] | IC50 (MDA-MB-231) [nM] | melting point [°C] | SMILES
1 | 1 to 10 | 100 to 500 | 100 to 500 | 221 to 224 | COc1ccc(F)c(OCCCN)c1-c1cc(Nc2cnc(C#N)cn2)n[nH]1 [Compound 1, 5-(5-(2-(3-Aminopropoxy)-3-fluoro-6-methoxyphenyl)-1H-pyrazol-3-ylamino)pyrazine-2-carbonitrile]
2 | ≤ 1 | 100 to 500 | 100 to 500 | 80 to 84 | COc1c(F)ccc(OCCCN)c1-c1cc(Nc2cnc(C#N)cn2)n[nH]1 [Compound 2, 5-((5-(6-(3-aminopropoxy)-3-fluoro-2-methoxyphenyl)-1H-pyrazol-3-yl)amino)pyrazine-2-carbonitrile]
3 | 1 to 10 | – | – | 213 to 215 | CNCC1(COc2c(F)ccc(OC)c2-c2cc(Nc3cnc(C#N)cn3)n[nH]2)CC1 [Compound 18, 5-(5-(3-fluoro-6-methoxy-2-((1-((methylamino)methyl)cyclopropyl)methoxy)phenyl)-1H-pyrazol-3-ylamino)pyrazine-2-carbonitrile]
4 | 1 to 10 | 50 to 100 | 100 to 500 | 215 to 219 | CNCC1(COc2ccc(F)c(OC)c2-c2cc(Nc3cnc(C#N)cn3)n[nH]2)CC1 [Compound 19, 5-((5-(3-fluoro-2-methoxy-6-((1-((methylamino)methyl)cyclopropyl)methoxy)phenyl)-1H-pyrazol-3-yl)amino)pyrazine-2-carbonitrile]
5 | ≤ 1 | ≤ 10 | 10 to 50 | 228 to 230 | CNCC1(COc2cc(F)cc(OC)c2-c2cc(Nc3cnc(C#N)cn3)n[nH]2)CC1 [Compound 20, 5-(5-(4-Fluoro-2-methoxy-6-((1-((methylamino)methyl)cyclopropyl)methoxy)phenyl)-1H-pyrazol-3-ylamino)pyrazine-2-carbonitrile]
6 | 10 to 50 | – | – | – | CCOC(=O)NCCCOc1cc(F)cc(OC)c1-c1cc(Nc2cnc(C#N)cn2)n[nH]1 [Compound 38, Ethyl 3-(2-(3-(5-cyanopyrazin-2-ylamino)-1H-pyrazol-5-yl)-5-fluoro-3-methoxyphenoxy)propylcarbamate]
